Source: patent US10597368B2, “Syringolin analogues and methods of making and using same” (BROWN UNIVERSITY, priority 2015, dated 2020)

biological target: T1, human 20S proteasome (hs20S), chymotrypsin-like β5-subunits (Homo sapiens, UniProt P20618+P28074); test: In vitro 20S peptidase inhibition kinetics, chymotrypsin-like activity (Suc-LLVY-AMC); type: biochemical; settings: second-order rate constant, Suc-LLVY-AMC substrate, 37° C.
T1 construct: purchased R&D
Experimental: In vitro 20S peptidase inhibition assays were recorded in a 384-well plate at a SpectraMax M5 (Molecular devises) plate-reader. Therefore, 5 nM human 20S (R&D) was incubated in buffer R (50 mM HEPES-KOH, pH 7.5, 0.5 mM EDTA) with 100 μM of the fluorogenic peptide substrates Suc-LLVY-AMC or Boc-LRR-AMC. Reactions were started by adding various amounts of inhibitors (5 nM to 500 μM) to a final volume of 30 μL and peptide hydrolysis was continuously monitored for 90 min by changes in fluorescence (excitation 380 nm; emission 440 nm) at 37° C. The kobs values were determined by fitting the raw data to equation (1). The slopes of the plots of kobsversus I gave an apparent value of kobs/I, also referred to as kinact/Ki for an irreversible inhibitor, which was then corrected by equation (2) to compensate for the effect of substrate competition, where app is the apparent value at different inhibitor concentrations.
Using purified human 20S proteasome (hs20S) and a fluorogenic substrate (Suc-LLVY-AMC), in vitro assays were performed to systematically assess proteasome inhibition by the syringolin analogues. The choice of substrate was based on the fact that it is preferentially acted upon by the chymotrypsin-like β5-subunits of the proteasome due to the aromatic tyrosine residue at the scissile bond (i.e., P1 position).
From measurements of the rates of hydrolysis of the fluorogenic substrate by the proteasome in the presence of increasing concentrations of each inhibitor, second-order rate constants kin/Ki (M^−1 s^−1) were determined (Table 1), which reflect both the affinity of the non-covalent binding (Ki) and the rate of the chemical reaction with the enzyme (kin). All of the syringolin analogues were capable in inhibiting the chymotrypsin-like activity of hs20S. Without wishing to be limited by any theory, consistent with the design predictions, the most significant contributor to the apparent second-order rate constants of the compounds was their binding affinity (Ki) rather than the rates of inhibition.
In vitro 20S peptidase inhibition assays were recorded in a 384-well plate at a SpectraMax M5 (Molecular Devices) plate-reader. Therefore, 5 nM human 20S (R&D) was incubated in buffer R (50 mM HEPEs-KOH, pH 7.5, 0.5 mM EDTA) with 100 μM of the fluorogenic peptide substrate Suc-LLVY-AMC. Reactions were started by adding various amounts of inhibitors 5 nM to 500 μM) to a final volume of 30 μL and peptide hydrolysis was continuously monitored for 90 minutes by changes in fluorescence (excitation 380 nm; emission 440 nm) at 37 degrees Celsius. The kobs values were determined by fitting the raw data to equation 1. The slopes of the plots of kobs versus I gave an apparent value of kob/I, also referred to as kinact/Ki for an irreversible inhibitor, which was then corrected by equation 2 to compensate for the effect of substrate competition, where app is the apparent value at different inhibitor concentrations.

For `COC(=O)[C@@H](NC(=O)N[C@H](C(=O)N[C@H]1CCCCNC(=O)/C=C/[C@H](Cc2cccc(F)c2)NC1=O)C(C)C)C(C)C` [Compound 6, (S)-methyl 2-(3-((S)-1-(((5S,8S,E)-5-(3-fluorobenzyl)-2,7-dioxo-1,6-diazacyclododec-3-en-8-yl)amino)-3-methyl-1-oxobutan-2-yl)ureido)-3-methylbutanoate], the “hs20S kin/Ki” value was 2,471 M^−1s^−1.
For `COC(=O)[C@@H](NC(=O)N[C@H](C(=O)N[C@H]1CCCCNC(=O)/C=C/[C@H](Cc2cc(F)cc(F)c2)NC1=O)C(C)C)C(C)C` [Compound 7, (S)-methyl 2-(3-((S)-1-(((5S,8S,E)-5-(3,5-difluorobenzyl)-2,7-dioxo-1,6-diazacyclododec-3-en-8-yl)amino)-3-methyl-1-oxobutan-2-yl)ureido)-3-methylbutanoate], the “hs20S kin/Ki” value was 1,579 M^−1s^−1.

`COC(=O)[C@@H](NC(=O)N[C@@H](Cc1ccccc1Cl)C(=O)N[C@H]1CCCCNC(=O)/C=C/[C@H](Cc2ccccc2F)NC1=O)C(C)C` [Compound 17, (S)-methyl 2-(3-((S)-3-(2-chlorophenyl)-1-((5S,8S,E)-5-(2-fluorobenzyl)-2,7-dioxo-1,6-diazacyclododec-3-en-8-ylamino)-1-oxopropan-2-yl)ureido)-3-methylbutanoate] and `COC(=O)[C@@H](NC(=O)N[C@@H](Cc1ccccc1)C(=O)N[C@H]1CCCCNC(=O)/C=C/[C@H](Cc2ccccc2F)NC1=O)C(C)C` [Compound 19, (S)-methyl 2-(3-((S)-1-((5S,8S,E)-5-(2-fluorobenzyl)-2,7-dioxo-1,6-diazacyclododec-3-en-8-ylamino)-1-oxo-3-phenylpropan-2-yl)ureido)-3-methylbutanoate] are within 1.5-fold of each other in “hs20S kin/Ki” value: 7271 M⁻¹ s⁻¹ for the first, 5877 M⁻¹ s⁻¹ for the second.

`COC(=O)[C@@H](NC(=O)N[C@@H](Cc1cccc(Cl)c1)C(=O)N[C@H]1CCCCNC(=O)/C=C/[C@H](Cc2ccccc2F)NC1=O)C(C)C` [Compound 18, (S)-methyl 2-(3-((S)-3-(3-chlorophenyl)-1-((5S,8S,E)-5-(2-fluorobenzyl)-2,7-dioxo-1,6-diazacyclododec-3-en-8-ylamino)-1-oxopropan-2-yl)ureido)-3-methylbutanoate] and `COC(=O)[C@@H](NC(=O)N[C@@H](Cc1cccc(C)c1)C(=O)N[C@H]1CCCCNC(=O)/C=C/[C@H](Cc2ccccc2F)NC1=O)C(C)C` [Compound 20, (S)-methyl 2-(3-((S)-1-((5S,8S,E)-5-(2-fluorobenzyl)-2,7-dioxo-1,6-diazacyclododec-3-en-8-ylamino)-1-oxo-3-m-tolylpropan-2-yl)ureido)-3-methylbutanoate] are within 1.5-fold of each other in “hs20S kin/Ki” value: 4656 M⁻¹ s⁻¹ for the first, 3797 M⁻¹ s⁻¹ for the second.

First: COC(=O)[C@@H](NC(=O)N[C@@H](Cc1ccc(C)cc1)C(=O)N[C@H]1CCCCNC(=O)/C=C/[C@H](Cc2ccccc2F)NC1=O)C(C)C [Compound 21, (S)-methyl 2-(3-((S)-1-((5S,8S,E)-5-(2-fluorobenzyl)-2,7-dioxo-1,6-diazacyclododec-3-en-8-ylamino)-1-oxo-3-p-tolylpropan-2-yl)ureido)-3-methylbutanoate]
Second: COC(=O)[C@@H](NC(=O)N[C@@H](Cc1ccc(C)cc1)C(=O)N[C@H]1CCCCNC(=O)/C=C/[C@H](Cc2cccc(F)c2)NC1=O)C(C)C [Compound 29, (S)-methyl 2-(3-((S)-1-((5S,8S,E)-S-(3-fluorobenzyl)-2,7-dioxo-1,6-diazacyclododec-3-en-8-ylamino)-1-oxo-3-p-tolylpropan-2 yl)ureido)-3-methylbutanoate]
The “hs20S kin/Ki” value of the first is 1.6-fold lower: 7332 M⁻¹ s⁻¹ for the first, 11670 M⁻¹ s⁻¹ for the second.

Going from `COC(=O)[C@@H](NC(=O)N[C@@H](Cc1cccc(F)c1)C(=O)N[C@H]1CCCCNC(=O)/C=C/[C@H](Cc2ccccc2F)NC1=O)C(C)C` [Compound 23, (S)-methyl 2-(3-((S)-1-((5S,8S,E)-5-(2-fluorobenzyl)-2,7-dioxo-1,6-diazacyclododec-3-en-8-ylamino)-3-(3-fluorophenyl)-1-oxopropan-2-yl)ureido)-3-methylbutanoate] to `COC(=O)[C@@H](NC(=O)N[C@@H](Cc1ccccc1F)C(=O)N[C@H]1CCCCNC(=O)/C=C/[C@H](Cc2cccc(F)c2)NC1=O)C(C)C` [Compound 30, (S)-methyl 2-(3-((S)-1-((5S,8S,E)-S-(3-fluorobenzyl)-2,7-dioxo-1,6-diazacyclododec-3-en-8-ylamino)-3-(2-fluorophenyl)-1-oxopropan-2 yl)ureido)-3-methylbutanoate], the “hs20S kin/Ki” value rises from 2199 M⁻¹ s⁻¹ to 12202 M⁻¹ s⁻¹ (5.5-fold).

Compared with `COC(=O)[C@@H](NC(=O)N[C@@H](Cc1ccccc1Cl)C(=O)N[C@H]1CCCCNC(=O)/C=C/[C@H](Cc2cccc(F)c2)NC1=O)C(C)C` [Compound 24, (S)-methyl 2-(3-((S)-3-(2-chlorophenyl)-1-((5S,8S,E)-5-(3-fluorobenzyl)-2,7-dioxo-1,6-diazacyclododec-3-en-8-ylamino)-1-oxopropan-2-yl)ureido)-3-methylbutanoate], `COC(=O)[C@@H](NC(=O)N[C@@H](Cc1ccccc1)C(=O)N[C@H]1CCCCNC(=O)/C=C/[C@H](Cc2cccc(F)c2)NC1=O)C(C)C` [Compound 27] is 5.2-fold higher in “hs20S kin/Ki” value: 2749 M⁻¹ s⁻¹ for the first, 14336 M⁻¹ s⁻¹ for the second.

Going from `COC(=O)[C@@H](NC(=O)N[C@@H](Cc1cccc(Cl)c1)C(=O)N[C@H]1CCCCNC(=O)/C=C/[C@H](Cc2cccc(F)c2)NC1=O)C(C)C` [Compound 25, (S)-methyl 2-(3-((S)-3-(3-chlorophenyl)-1-((5S,8S,E)-5-(3-fluorobenzyl)-2,7-dioxo-1,6-diazacyclododec-3-en-8-ylamino)-1-oxopropan-2-yl)ureido)-3-methylbutanoate] to `COC(=O)[C@@H](NC(=O)N[C@@H](Cc1cccc(C)c1)C(=O)N[C@H]1CCCCNC(=O)/C=C/[C@H](Cc2cccc(F)c2)NC1=O)C(C)C` [Compound 28, (S)-methyl 2-(3-((S)-1-((5S,8S,E)-S-(3 fluorobenzyl)-2,7-dioxo-1,6-diazacyclododec-3-en-8-ylamino)-1-oxo-3-m-tolylpropan-2-yl)ureido)-3-methylbutanoate], the “hs20S kin/Ki” value rises from 8532 M⁻¹ s⁻¹ to 12866 M⁻¹ s⁻¹ (1.5-fold).

Compared with `COC(=O)[C@@H](NC(=O)N[C@@H](Cc1ccc(Cl)cc1)C(=O)N[C@H]1CCCCNC(=O)/C=C/[C@H](Cc2cccc(F)c2)NC1=O)C(C)C` [Compound 26, (S)-methyl 2-(3-((S)-3-(4-chlorophenyl)-1-((5S,8S,E)-5-(3-fluorobenzyl)-2,7-dioxo-1,6-diazacyclododec-3-en-8-ylamino)-1-oxopropan-2-yl)ureido)-3-methylbutanoate], `COC(=O)[C@@H](NC(=O)N[C@@H](Cc1cccc(F)c1)C(=O)N[C@H]1CCCCNC(=O)/C=C/[C@H](Cc2cccc(F)c2)NC1=O)C(C)C` [Compound 31, (S)-methyl 2-(3-((S)-1-((5S,8S,E)-5-(3-fluorobenzyl)-2,7-dioxo-1,6-diazacyclododec-3-en-8-ylamino)-3-(3-fluorophenyl)-1-oxopropan-2-yl)ureido)-3-methylbutanoate] is […]-fold lower in “hs20S kin/Ki” value: 12605 M⁻¹ s⁻¹ for the first, 5016 M⁻¹ s⁻¹ for the second.

`COC(=O)[C@@H](NC(=O)N[C@@H](Cc1cccc(C(F)(F)F)c1)C(=O)N[C@H]1CCCCNC(=O)/C=C/[C@H](Cc2cccc(F)c2)NC1=O)C(C)C` [Compound 32, (S)-methyl 2-(3-((S)-1-((5S,8S,E)-5-(3-fluorobenzyl)-2,7-dioxo-1,6-diazacyclododec-3-en-8-ylamino)-1-oxo-3-(3-(trifluoromethyl)phenyl)propan-2-yl)ureido)-3-methylbutanoate] was tested, and the “hs20S kin/Ki” value was 4531 M⁻¹ s⁻¹.
